Earlier results, collected in patent publication US12357619B2, “Noradrenergic and specific serotonergic anxiolytic and antidepressant, method for the production and use thereof” (ALLA CHEM, LLC, priority 2020, dated 2025).

Molecular target: T1, Serotonin 5-HT2C (Homo sapiens, UniProt P28335)
T1 sequence (P28335 33-458): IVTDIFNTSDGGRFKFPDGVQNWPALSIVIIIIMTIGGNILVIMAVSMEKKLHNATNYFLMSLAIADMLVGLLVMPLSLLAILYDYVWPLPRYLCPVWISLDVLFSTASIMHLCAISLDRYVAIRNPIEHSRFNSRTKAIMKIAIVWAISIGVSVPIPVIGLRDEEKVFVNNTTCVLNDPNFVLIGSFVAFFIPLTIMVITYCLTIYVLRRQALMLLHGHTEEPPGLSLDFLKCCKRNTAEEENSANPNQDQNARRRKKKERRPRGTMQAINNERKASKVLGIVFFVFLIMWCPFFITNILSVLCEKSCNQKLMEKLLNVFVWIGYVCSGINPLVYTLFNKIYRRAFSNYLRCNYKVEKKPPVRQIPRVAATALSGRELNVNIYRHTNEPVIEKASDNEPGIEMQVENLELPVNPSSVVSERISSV
Settings: from en.wikipedia.org/wiki/Mirtazapine; cited from earlier work

For CN1CCN2c3ncccc3Cc3ccccc3C2C1 (stereo not shown) [Mirtazapine], the Ki is given as 8.9 to 39 nM.
